Results published in PubChem BioAssay AID2060510 (Molecular Pharmacology Branch, DTP, NCI, 2025).

Tested on: 439559-082-T-J2-PDC spheroids viability
Test: Anticancer human tumor 439559-082-T-J2-PDC patient-derived colon adenocarcinoma cell line growth inhibition [GQUAD]
Details: for IC50: curve of first compound; for viability, T/C: stronger effect = lower value; active = viability on the fitted dose curve at most 10% of control; inactive = the rest
Procedure, shortened: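 Multi-cell-type spheroids of tumor cells with HUVEC and mesenchymal stem cells, treated with drug combinations. Concentrations descend in half-log steps from near clinical Cmax, or from 10 microM where Cmax is unknown; viability read-out.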

[1] = second compound 0.0316 µM, first compound 0.000999 µM
[2] = second compound 0.0316 µM, first compound 0.00316 µM
[3] = second compound 0.0316 µM, first compound 0.00999 µM
[4] = second compound 0.0316 µM, first compound 0.0316 µM
[5] = second compound 0.0316 µM, first compound 0.0999 µM
[6] = second compound 0.0316 µM, first compound 0.316 µM
[7] = second compound 0.1 µM, first compound 0.000999 µM
[8] = second compound 0.1 µM, first compound 0.00316 µM
[9] = second compound 0.1 µM, first compound 0.00999 µM
[10] = second compound 0.1 µM, first compound 0.0316 µM
[11] = second compound 0.1 µM, first compound 0.0999 µM
[12] = second compound 0.1 µM, first compound 0.316 µM
[13] = second compound 0.316 µM, first compound 0.000999 µM
[14] = second compound 0.316 µM, first compound 0.00316 µM
[15] = second compound 0.316 µM, first compound 0.00999 µM
[16] = second compound 0.316 µM, first compound 0.0316 µM
[17] = second compound 0.316 µM, first compound 0.0999 µM
[18] = second compound 0.316 µM, first compound 0.316 µM
[19] = second compound 1 µM, first compound 0.000999 µM
[20] = second compound 1 µM, first compound 0.00316 µM
[21] = second compound 1 µM, first compound 0.00999 µM
[22] = second compound 1 µM, first compound 0.0316 µM
[23] = second compound 1 µM, first compound 0.0999 µM
[24] = second compound 1 µM, first compound 0.316 µM
[25] = second compound 3.16 µM, first compound 0.000999 µM
[26] = second compound 3.16 µM, first compound 0.00316 µM
[27] = second compound 3.16 µM, first compound 0.00999 µM
[28] = second compound 3.16 µM, first compound 0.0316 µM
[29] = second compound 3.16 µM, first compound 0.0999 µM
[30] = second compound 3.16 µM, first compound 0.316 µM
[31] = second compound 10 µM, first compound 0.000999 µM
[32] = second compound 10 µM, first compound 0.00316 µM
[33] = second compound 10 µM, first compound 0.00999 µM
[34] = second compound 10 µM, first compound 0.0316 µM
[35] = second compound 10 µM, first compound 0.0999 µM
[36] = second compound 10 µM, first compound 0.316 µM
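Also: spheroids exposed to the agents for 7 days before readout.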
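For viability, T/C in this document: percent of luminescence signal in DMSO vehicle wells taken as 100% viability.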

Cn1ncnc1[C@H]1c2n[nH]c(=O)c3cc(F)cc(c23)N[C@@H]1c1ccc(F)cc1 + CN(C)c1ccc(Nc2c3ccc(NC(=O)CCN4CCCC4)cc3nc3cc(NC(=O)CCN4CCCC4)ccc23)cc1
> 316 nM: IC50 (second compound 0.0316 µM) | IC50 (second compound 0.1 µM) | IC50 (second compound 0.316 µM) | IC50 (second compound 1 µM) | IC50 (second compound 3.16 µM) | IC50 (second compound 10 µM)
inactive: viability, T/C [1] 94.6% | viability, T/C [2] 97% | viability, T/C [3] 104% | viability, T/C [4] 96.3% | viability, T/C [5] 95.9% | viability, T/C [6] 94.4% | viability, T/C [7] 99.6% | viability, T/C [8] 98.6% | viability, T/C [9] 90.7% | viability, T/C [10] 108% | viability, T/C [11] 94.4% | viability, T/C [12] 85.3% | viability, T/C [13] 99.6% | viability, T/C [14] 106% | viability, T/C [15] 97% | viability, T/C [16] 94.4% | viability, T/C [17] 93.8% | viability, T/C [18] 82.5% | viability, T/C [19] 96.8% | viability, T/C [20] 91.7% | viability, T/C [21] 96% | viability, T/C [22] 111% | viability, T/C [23] 96.8% | viability, T/C [24] 92.5% | viability, T/C [25] 101% | viability, T/C [26] 102% | viability, T/C [27] 89.6% | viability, T/C [28] 99.2% | viability, T/C [29] 98.1% | viability, T/C [30] 85.5% | viability, T/C [31] 104% | viability, T/C [32] 77.2% | viability, T/C [33] 91.5% | viability, T/C [34] 85.8% | viability, T/C [35] 99.6% | viability, T/C [36] 85%

CC[C@@]1(O)C(=O)OCc2c1cc1n(c2=O)Cc2cc3c(CN(C)C)c(O)ccc3nc2-1 + Cc1[nH]c2ccc(F)cc2c1-c1nc2c3cccnc3c3ncccc3c2[nH]1
> 316 nM: IC50 (second compound 0.0316 µM) | IC50 (second compound 0.1 µM) | IC50 (second compound 0.316 µM) | IC50 (second compound 1 µM) | IC50 (second compound 3.16 µM) | IC50 (second compound 10 µM)
inactive: viability, T/C [1] 99.4% | viability, T/C [2] 109% | viability, T/C [3] 94.5% | viability, T/C [4] 99.7% | viability, T/C [5] 96.3% | viability, T/C [6] 82.4% | viability, T/C [7] 101% | viability, T/C [8] 102% | viability, T/C [9] 99.5% | viability, T/C [10] 96.2% | viability, T/C [11] 103% | viability, T/C [12] 83% | viability, T/C [13] 98.1% | viability, T/C [14] 92.1% | viability, T/C [15] 89.1% | viability, T/C [16] 99.2% | viability, T/C [17] 90.5% | viability, T/C [18] 83.3% | viability, T/C [19] 94% | viability, T/C [20] 101% | viability, T/C [21] 98.6% | viability, T/C [22] 84.9% | viability, T/C [23] 93.3% | viability, T/C [24] 83.6% | viability, T/C [25] 81.8% | viability, T/C [26] 81.2% | viability, T/C [27] 88.9% | viability, T/C [28] 78.2% | viability, T/C [29] 86.2% | viability, T/C [30] 73.5% | viability, T/C [31] 86.4% | viability, T/C [32] 78.7% | viability, T/C [33] 75.3% | viability, T/C [34] 76% | viability, T/C [35] 90.1% | viability, T/C [36] 56.9%

COc1ncnc(C2CC2)c1-c1ncc2cnn(Cc3ccc(-c4nc(C(F)(F)F)cn4C(C)C)cc3)c2n1 + Cc1[nH]c2ccc(F)cc2c1-c1nc2c3cccnc3c3ncccc3c2[nH]1
inactive: viability, T/C [4] 102% | viability, T/C (second compound 0.0316 µM, first compound 0.1 µM) 86.8% | viability, T/C [6] 97.2% | viability, T/C (second compound 0.0316 µM, first compound 1 µM) 90.3% | viability, T/C (second compound 0.0316 µM, first compound 3.16 µM) 81.5% | viability, T/C (second compound 0.0316 µM, first compound 10 µM) 58% | viability, T/C [10] 112% | viability, T/C (second compound 0.1 µM, first compound 0.1 µM) 94.8% | viability, T/C [12] 97.6% | viability, T/C (second compound 0.1 µM, first compound 1 µM) 93.8% | viability, T/C (second compound 0.1 µM, first compound 3.16 µM) 84.6% | viability, T/C (second compound 0.1 µM, first compound 10 µM) 63.6% | viability, T/C [16] 103% | viability, T/C (second compound 0.316 µM, first compound 0.1 µM) 104% | viability, T/C [18] 103% | viability, T/C (second compound 0.316 µM, first compound 1 µM) 90.6% | viability, T/C (second compound 0.316 µM, first compound 3.16 µM) 83.7% | viability, T/C (second compound 0.316 µM, first compound 10 µM) 72.5% | viability, T/C [22] 99.8% | viability, T/C (second compound 1 µM, first compound 0.1 µM) 92% | viability, T/C [24] 91.9% | viability, T/C (second compound 1 µM, first compound 1 µM) 92.5% | viability, T/C (second compound 1 µM, first compound 3.16 µM) 77.8% | viability, T/C (second compound 1 µM, first compound 10 µM) 60.4% | viability, T/C [28] 97.3% | viability, T/C (second compound 3.16 µM, first compound 0.1 µM) 95.3% | viability, T/C [30] 93.2% | viability, T/C (second compound 3.16 µM, first compound 1 µM) 78.2% | viability, T/C (second compound 3.16 µM, first compound 3.16 µM) 82.5% | viability, T/C (second compound 3.16 µM, first compound 10 µM) 50.6% | viability, T/C [34] 80.8% | viability, T/C (second compound 10 µM, first compound 0.1 µM) 62.9% | viability, T/C [36] 92.6% | viability, T/C (second compound 10 µM, first compound 1 µM) 81.7% | viability, T/C (second compound 10 µM, first compound 3.16 µM) 84.8% | viability, T/C (second compound 10 µM, first compound 10 µM) 60.7%
> 10000 nM: IC50 (second compound 0.0316 µM) | IC50 (second compound 0.1 µM) | IC50 (second compound 0.316 µM) | IC50 (second compound 1 µM) | IC50 (second compound 3.16 µM) | IC50 (second compound 10 µM)
